Source: ChEMBL document CHEMBL1201862, “PubChem BioAssay data set” (2004)
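How tested: cells in 96-well plates exposed to compound for 48 hours at five concentrations. GI50 is the concentration that inhibits growth by half.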 Calls of active or inactive are those of the source. No stated cut-off is given here; in the data, active = GI50 up to about 1.1 µM and inactive = higher.

Assays:
Assay in all cases: NCI-60 cell line screen, 48 h
ACHN = system: ACHN
DU-145 = system: DU-145
HCT-116 = system: HCT-116
HCT-15 = system: HCT-15
M14 = system: M14
MCF7 = system: MCF7
MDA-N = system: MDA-N
NCI-H23 = system: NCI-H23
OVCAR-8 = system: OVCAR-8
PC-3 = system: PC-3
RXF 393 = system: RXF 393
SF-268 = system: SF-268
SF-295 = system: SF-295
SK-MEL-28 = system: SK-MEL-28
SK-MEL-5 = system: SK-MEL-5
SNB-75 = system: SNB-75
SR = system: SR
UACC-257 = system: UACC-257
SF-539 = system: SF-539
HCC 2998 = system: HCC 2998

SMILES	GI50 (ACHN)	GI50 (DU-145)	GI50 (HCT-116)	GI50 (HCT-15) [µM]	GI50 (M14)	GI50 (MCF7)	GI50 (MDA-N)	GI50 (NCI-H23)	GI50 (OVCAR-8)	GI50 (PC-3)	GI50 (RXF 393)	GI50 (SF-268)	GI50 (SF-295)	GI50 (SK-MEL-28)	GI50 (SK-MEL-5)	GI50 (SNB-75)	GI50 (SR)	GI50 (UACC-257)	GI50 (SF-539)	GI50 (HCC 2998)
O=C(O)C1CCN(Cc2oc(CO)cc(=O)c2O)C1 (centres undefined)	> 100 µM (inactive)	> 100 µM (inactive)	> 100 µM (inactive)	> 100	> 100 µM (inactive)	> 100 µM (inactive)	> 100 µM (inactive)	> 100 µM (inactive)	> 100 µM (inactive)	> 100 µM (inactive)	> 100 µM (inactive)	> 100 µM (inactive)	> 100 µM (inactive)	> 100 µM (inactive)	> 100 µM (inactive)	> 100 µM (inactive)	> 100 µM (inactive)	> 100 µM (inactive)	–	–
CC(C)CC(NC=O)C(=O)NC(Cc1ccccc1)NC(=O)CNC(=O)C(C)NC(=O)C(N)Cc1ccc(O)cc1 (centres undefined)	> 100 µM (inactive)	> 100 µM (inactive)	> 100 µM (inactive)	> 100	> 100 µM (inactive)	> 100 µM (inactive)	> 100 µM (inactive)	> 100 µM (inactive)	> 100 µM (inactive)	> 100 µM (inactive)	> 100 µM (inactive)	> 100 µM (inactive)	> 100 µM (inactive)	> 100 µM (inactive)	> 100 µM (inactive)	> 100 µM (inactive)	> 100 µM (inactive)	–	> 100 µM (inactive)	–
CCCCCCCCCCCCCCCCCCOc1ccc(/C=C/C2=[N+](CCCl)CCO2)cc1	> 100 µM (inactive)	> 100 µM (inactive)	> 100 µM (inactive)	> 100	> 100 µM (inactive)	> 100 µM (inactive)	> 100 µM (inactive)	–	> 100 µM (inactive)	> 100 µM (inactive)	–	–	> 100 µM (inactive)	> 100 µM (inactive)	> 100 µM (inactive)	3.54 µM (inactive)	30.9 µM (inactive)	> 100 µM (inactive)	> 100 µM (inactive)	–
Cc1ccc(S(=O)(=O)SC(C)(C)C)cc1	38.5 µM (inactive)	> 100 µM (inactive)	17.6 µM (inactive)	23.4	31.6 µM (inactive)	19.2 µM (inactive)	> 10 µM (inactive)	11.2 µM (inactive)	21.3 µM (inactive)	> 10 µM (inactive)	–	45.5 µM (inactive)	> 100 µM (inactive)	48.4 µM (inactive)	46.1 µM (inactive)	> 63.5 µM (inactive)	12.2 µM (inactive)	21.6 µM (inactive)	32.1 µM (inactive)	> 43.5 µM (inactive)
CC12CC(c3ccccc3O1)C(C(=O)Nc1ccc(F)cc1)C(=O)N2 (centres undefined)	> 100 µM (inactive)	> 100 µM (inactive)	> 100 µM (inactive)	> 100	> 100 µM (inactive)	> 100 µM (inactive)	> 100 µM (inactive)	44.6 µM (inactive)	36 µM (inactive)	> 100 µM (inactive)	–	> 100 µM (inactive)	–	> 100 µM (inactive)	32.5 µM (inactive)	–	73.1 µM (inactive)	81.8 µM (inactive)	> 100 µM (inactive)	> 100 µM (inactive)
COc1ccc([N+](=O)[O-])c2c(NCCCN(C)C)ccnc12	2.86 µM (inactive)	5.42 µM (inactive)	3.77 µM (inactive)	1.85	6.52 µM (inactive)	5.01 µM (inactive)	12.1 µM (inactive)	2.32 µM (inactive)	10.8 µM (inactive)	4.32 µM (inactive)	2.31 µM (inactive)	6.18 µM (inactive)	3.61 µM (inactive)	> 63.4 µM (inactive)	2.12 µM (inactive)	1.28 µM (inactive)	–	3.26 µM (inactive)	4.6 µM (inactive)	2.84 µM (inactive)
COc1cc(C2c3c(ccc4ccccc34)C(=O)C3CCC(=O)N32)cc(OC)c1OC (centres undefined)	> 50 µM (inactive)	> 50 µM (inactive)	> 50 µM (inactive)	> 50	> 50 µM (inactive)	> 50 µM (inactive)	> 50 µM (inactive)	> 50 µM (inactive)	> 50 µM (inactive)	> 50 µM (inactive)	> 50 µM (inactive)	> 50 µM (inactive)	> 50 µM (inactive)	> 50 µM (inactive)	–	> 50 µM (inactive)	48.4 µM (inactive)	> 50 µM (inactive)	> 50 µM (inactive)	–
C=CCOC(=O)Cn1ccc(=O)[nH]c1=O	> 100 µM (inactive)	> 100 µM (inactive)	> 100 µM (inactive)	> 100	> 100 µM (inactive)	> 100 µM (inactive)	> 100 µM (inactive)	> 100 µM (inactive)	> 100 µM (inactive)	> 100 µM (inactive)	–	> 100 µM (inactive)	> 100 µM (inactive)	> 100 µM (inactive)	> 100 µM (inactive)	> 100 µM (inactive)	> 100 µM (inactive)	> 100 µM (inactive)	> 100 µM (inactive)	> 100 µM (inactive)
